Experiments:
LasR = target: T1, LasR (Pseudomonas aeruginosa, UniProt P25084); assay: E. coli bioindicator expressing LasR (pAL105, lasI::luxCDABE luminescence); assay type: cell-based; conditions: OC12-HSL 100 µM; QSIs at 0.1 mg/ml, naringenin and naringin at 0.5 mg/ml
T1 construct: expressed in transfected cells; host or cells: Escherichia coli JLD271 carrying pAL105 (pSB401-derivative, lasR+ lasI::luxCDABE)
Description: (§1) We determined whether the AHL-binding transcriptional factors LasR and RhlR were impaired in their capacity to activate expression of the QS-regulated genes in the presence of various QSIs. This was achieved by using two E. coli bioindicator strains expressing either LasR or RhlR proteins and harboring an appropriate reporter lux operon for measuring their transcriptional activity in the presence of OC12-HSL at 100 µM and C4-HSL at 10 µM, respectively. Adding C4-HSL to the pAL101-bioindicator or OC12-HSL to the pAL105-bioindicator induced the expression of the reporter lux operon and the consequent production of luminescence. In contrast, only background levels of luminescence were detected in control strains harboring the plasmids pAL102 or pAL106, which lacks the rhlR or lasR gene, respectively.
(§2) Figure 7 QSIs modulated activity of the AHL-sensors in P. aeruginosa. Luminescence of the reporting operon lux, expressed in relative light units (RLU/OD600), was measured in E. coli bioindicator strains harboring the LasR (A) and RhlR (B) AHL-sensing systems of P. aeruginosa in the presence of […]. The QSIs estradiol, estrone, estriol and hordenine were added at 0.1 mg/ml, while naringenin and naringin, added at 0.5 mg/ml, were used as QSI-reference and non-QSI reference, respectively. Each test (n = 6) was compared with the DMSO-condition using Student's t test. Asterisks indicate statistically different data (p value of ≤0.01).
(§3) Escherichia coli JLD271 biosensor strains harboring LasR- and RhlR-based plasmids pAL105 and pAL101 and control plasmids pAL106 (LasR^-) and pAL102 (RhlR^−) (Table 1) were prepared according to Vandeputte et al.. Briefly, these strains were grown in LB medium supplemented with tetracycline (10 µg/ml) and chloramphenicol (25 µg/ml) for 24 h. Then 50-µl portions of the cultures were subcultured in 1 ml of LB medium (the starting OD600 ranged between 0.02 and 0.025 corresponding to 5.10^6 CFU) supplemented with 10 µl of DMSO (1% [vol/vol] final), 10 µl of naringenin or naringin dissolved in DMSO (2 mM, final concentration), or 10 µl of the molecule to be tested. To induce the expression of the lux operon, 0, 1, 10 or […] of C4-HSL was added to pAL101 and pAL102, while OC12-HSL was added to pAL105 and pAL106. After incubation for 2 h at 37°C with agitation (175 rpm), 200 µl of culture was transferred to 96-well OptiPlate-96 F plates from Perkin-Elmer, and the luminescence of each sample was measured by using a TopCount NXT device from Perkin-Elmer. The LasR(pAL106) and RhlR(pAL102) biosensors were used for background subtraction, and the OD600 values were measured to account for the differences in cell density. All experiments were performed in six replicates. The statistical significance of each test was evaluated by conducting Student's t tests using the GraphPad Prism software, and p values ≤0.05 were considered significant. Naringenin (4′,5,7-trihydroxyflavanone), naringin (4′,5,7-trihydroxyflavanone 7-rhamnoglucoside), the AHLs OC12-HSL and C4-HSL were purchased from Sigma-Aldrich and dissolved freshly in 100% DMSO before use. Tested QSIs were dissolved in 100% DMSO before use.

RhlR = target: T2, RhlR (Pseudomonas aeruginosa, UniProt P54292); assay: E. coli bioindicator expressing RhlR (pAL101, rhlI::luxCDABE luminescence); assay type: cell-based; conditions: C4-HSL 10 µM; QSIs at 0.1 mg/ml, naringenin and naringin at 0.5 mg/ml
T2 construct: expressed in transfected cells; host or cells: Escherichia coli JLD271 carrying pAL101 (pSB401-derivative, rhlR+ rhlI::luxCDABE)
T2 sequence (P54292 whole entry): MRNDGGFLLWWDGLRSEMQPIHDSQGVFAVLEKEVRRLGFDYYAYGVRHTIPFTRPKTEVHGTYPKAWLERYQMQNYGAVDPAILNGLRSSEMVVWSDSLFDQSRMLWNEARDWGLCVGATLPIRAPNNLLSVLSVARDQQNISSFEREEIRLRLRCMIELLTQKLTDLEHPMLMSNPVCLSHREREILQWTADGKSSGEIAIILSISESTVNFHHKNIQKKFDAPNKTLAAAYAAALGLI
Description: as §1, §2, §3

[1] = tested on: Agrobacterium biosensor cells; assay: Minimal inhibitory concentration (MIC); assay type: cell-based, Agrobacterium tumefaciens; conditions: Agrobacterium; 10^5 CFU/ml, 36 h at 30°C; read-out: MIC
Description: (§4) Aside from the effect of QSI on QS regulation, the toxicity of these compounds was tested on bacterial cells by measuring two parameters: the minimal inhibitory concentration (MIC) and minimal bactericidal concentration (MBC). MIC, which is the lowest concentration of QSI (µg/ml) inhibiting any visible culture after 36 h of incubation at 30°C, was estimated by culturing 10^5 CFU/ml of the Agrobacterium biosensor cells in the presence of different concentrations of the QSI. MBC, which is the lowest concentration of QSI (µg/ml) that results in a 99.9% reduction of the initial bacterial population (10^5 CFU/ml) after 36 h of incubation at 30°C in the presence of different concentrations of QSI, was estimated by plating 100 µL of the Agrobacterium cultures on agar LBm plates. After an incubation of 48 h at 30°C, CFU were counted and the MBC values were calculated.

[2] = tested on: Agrobacterium biosensor cells; assay: Minimal bactericidal concentration (MBC); assay type: cell-based, Agrobacterium tumefaciens; conditions: Agrobacterium; 99.9% reduction of 10^5 CFU/ml after 36 h at 30°C; read-out: MBC
Description: as §4

P. aeruginosa = assay: Growth kinetics of P. aeruginosa in the presence of QSIs; assay type: cell-based, Pseudomonas aeruginosa; conditions: QSI at 0.5 mg/ml, OD600 and CFU at 8 and 18 hour
Description: (§5) Figure 5 QSIs modulated QS-signal accumulation in P. aeruginosa. Growth kinetics (n = 6) of P. aeruginosa was measured (OD600) in the presence of the QSIs (estradiol, estrone, estriol, hordenine and 4-NPO) at 0.5 mg/ml using DMSO as a negative control. Cell counts were assessed (CFU/ml) at 8- and 18-hour, and C4-HSL and OC12-HSL concentration (µM) were determined in the bacterial cultures at 18-hour. Statistically different values (Student's t test with α = 0.01) are noted by asterisks.
(§6) QS gene transcription in P. aeruginosa PAO1 was monitored using PAO1 strains carrying various gene promoters fused to a lacZ reporter gene, as described in Vandeputte et al., 2010 and Table 1. PAO1 reporter strains were prepared according to Vandeputte et al.. Briefly, 18-hours-old liquid cultures (50 µl) were diluted in order to obtain a starting OD600 nm comprised between 0.02 and 0.03 in fresh LB medium supplemented with 50 mM MOPS pH 7.0 (1 ml), carbenicillin (300 µg/ml) and 10 µl of the QSIs to be tested (OD were measured using a SpectraMax M2 device from Molecular Devices). Test and control QSIs were diluted in 100% DMSO (resulting after addition to the growth medium in a 1% final concentration of DMSO). Cultures were incubated for 18 hours at 37°C with agitation. After incubation, cell densities were assessed spectrophotometrically (OD600 nm) and β-galactosidase assays were performed using the substrate o-nitrophenyl-β-D-galactopyranoside as described previously, [29]. Promoterless-lacZ fusions were used as controls. AHLs were quantified as described in Vandeputte et al.. All tests were performed in quintuplicates and three biological repetitions. The statistical significance of each test was evaluated by conducting Student's t tests and two-way ANOVA combined with the Tukey post-analysis test using the GraphPad Prism software and p values≤0.01 were considered significant.

[3] = tested on: QS-signal accumulation in P. aeruginosa; assay: AHL (C4-HSL, OC12-HSL) quantification in P. aeruginosa cultures by mass spectrometry; assay type: cell-based, Pseudomonas aeruginosa; conditions: QSI at 0.5 mg/ml, 18-hour
Description: as §5, §6

[4] = tested on: QS-regulated genes lasI, lasR, lasB, rhlI, rhlR, rhlA in P. aeruginosa PAO1; assay: QS-regulated gene expression, lacZ transcriptional fusions in PAO1; assay type: cell-based, Pseudomonas aeruginosa; conditions: QSI at 0.5 mg/ml, 18 hours at 37°C, β-galactosidase
Description: Figure 6 QSIs modulated QS-regulated genes in P. aeruginosa. The β-galactosidase (b-Gal) activity in Miller unit (MU) of the transcriptional fusions lasI-lacZ (A), lasR-lacZ (B), lasB-lacZ (C), rhlI-lacZ (D), rhlR-lacZ (E), rhlA-lacZ (F), and aecA-lacZ(G) were measured in the presence of estradiol, estrone, estriol, hordenine at 0.5 mg/ml, and naringenin at 1 mg/ml as a positive control and DMSO as a negative control. The statistical significance of each test (n = 5 and three biological replicates) was evaluated by Student's t test (i.e. each test was compared with the DMSO condition). Asterisks indicate statistically different data (p value of ≤0.01).
as §6

T1 sequence (P25084 whole entry): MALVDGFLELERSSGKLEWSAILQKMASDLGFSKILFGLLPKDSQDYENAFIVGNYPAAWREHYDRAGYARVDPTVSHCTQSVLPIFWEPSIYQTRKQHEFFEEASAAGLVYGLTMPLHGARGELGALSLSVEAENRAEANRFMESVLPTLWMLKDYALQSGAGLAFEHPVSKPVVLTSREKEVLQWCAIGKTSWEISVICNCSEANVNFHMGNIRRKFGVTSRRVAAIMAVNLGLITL

SMILES	effect on LasR functionality (lux luminescence) (LasR)	effect on RhlR functionality (lux luminescence) (RhlR)	MIC [1] [µg/mL]	MBC [2] [µg/mL]	effect on growth of P. aeruginosa (P. aeruginosa)	C4-HSL concentration in cell cultures [3]	OC12-HSL concentration in cell cultures [3]	expression of six QS-regulated genes (lasI, lasR, lasB, rhlI, rhlR, rhlA) [4]
C[C@@H]1O[C@@H](O[C@H]2[C@H](Oc3cc(O)c4c(c3)O[C@H](c3ccc(O)cc3)CC4=O)O[C@H](CO)[C@@H](O)[C@@H]2O)[C@H](O)[C@H](O)[C@H]1O [naringin, 4′,5,7-trihydroxyflavanone 7-rhamnoglucoside]	no effect	no effect						
C[C@]12CC[C@@H]3c4ccc(O)cc4CC[C@H]3[C@@H]1CC[C@@H]2O [Estradiol, estradiol]	affected LasR functionality		> 100	> 100	did not affect the growth	reduction	reduction	decreased
O=C1CC(c2ccc(O)cc2)Oc2cc(O)cc(O)c21 (centres unmarked) [naringenin, 4′,5,7-trihydroxyflavanone]	less luminescence	less luminescence						

From publication PMC3871529, “At a Supra-Physiological Concentration, Human Sexual Hormones Act as Quorum-Sensing Inhibitors” (PLoS ONE, 2013)
